Data on 24 compounds can be found in patent publication US7153881B2, “Compounds acting as melanocortin receptor ligands” (Acure Pharma AB, priority 2001, dated 2006).

The target of data set [1] is T1, MC3 (Homo sapiens, UniProt P41968). The data set can be described thus: Stimulation of cAMP, MC3. The conditions noted are these: response given relative to α-MSH. In kind it is cell-based. As to the method:
(§1) The stimulation of cAMP was carried out essentially as described by Schiöth et al, Br J Pharmacol 1998; 124; 75–82, however, the response is given relative to α-MSH.

For the next data set, the target named is MC5-receptors (Homo sapiens, UniProt P33032). Description: Affinity for the MC5-receptors, binding assay using I125-NDP-αMSH as ligand. The protocol: (§2) Test 2. Affinity for the MC3-receptors, the MC4-receptors and the MC5-receptors
MC5-receptors, sequence (P33032 whole entry): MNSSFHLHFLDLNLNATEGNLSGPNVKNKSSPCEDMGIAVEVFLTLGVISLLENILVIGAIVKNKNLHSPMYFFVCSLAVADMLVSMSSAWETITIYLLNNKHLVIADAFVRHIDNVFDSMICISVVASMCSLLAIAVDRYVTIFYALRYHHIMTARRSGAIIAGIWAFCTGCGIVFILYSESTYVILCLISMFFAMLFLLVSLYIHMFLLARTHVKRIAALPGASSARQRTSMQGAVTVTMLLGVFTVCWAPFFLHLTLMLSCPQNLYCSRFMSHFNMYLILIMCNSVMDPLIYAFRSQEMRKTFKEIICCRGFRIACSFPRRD
(§3) The binding assays were carried out essentially as described by Szardenings et al, J Biol Chem 1997; 272; 27943–27948 and Schiöth et al, FEBS Lett 1997; 410; 223–228 using I125-NDP-αMSH as ligand.

A further data set concerns the target MC1 (Homo sapiens, UniProt Q01726). The data set can be described thus: Stimulation of cAMP, MC1. In kind it is cell-based. Conditions: response given relative to α-MSH. The protocol:
as §1

Data set [2] addresses T2, MC4 (Homo sapiens, UniProt P32245). Description: Affinity for the MC4-receptors, binding assay using I125-NDP-αMSH as ligand. The protocol: as §2, §3
Data set [3] addresses T2, MC4. The data set can be described thus: Stimulation of cAMP, MC4. In kind it is cell-based. The conditions noted are these: response given relative to α-MSH. The protocol:
as §1

Data set [4] deals with T1, MC3. The data set can be described thus: Affinity for the MC3-receptors, binding assay using I125-NDP-αMSH as ligand. As to the method:
as §2, §3

T2 sequence (P32245 whole entry): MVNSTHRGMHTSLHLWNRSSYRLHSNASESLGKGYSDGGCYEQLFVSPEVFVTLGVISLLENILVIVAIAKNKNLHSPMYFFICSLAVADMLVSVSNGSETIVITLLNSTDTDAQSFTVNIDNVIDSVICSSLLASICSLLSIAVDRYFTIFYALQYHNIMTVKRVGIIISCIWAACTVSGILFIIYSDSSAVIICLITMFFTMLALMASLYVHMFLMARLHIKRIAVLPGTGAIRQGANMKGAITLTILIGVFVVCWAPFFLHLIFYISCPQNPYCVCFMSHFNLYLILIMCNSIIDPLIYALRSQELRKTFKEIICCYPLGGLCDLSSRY
T1 sequence (P41968 whole entry): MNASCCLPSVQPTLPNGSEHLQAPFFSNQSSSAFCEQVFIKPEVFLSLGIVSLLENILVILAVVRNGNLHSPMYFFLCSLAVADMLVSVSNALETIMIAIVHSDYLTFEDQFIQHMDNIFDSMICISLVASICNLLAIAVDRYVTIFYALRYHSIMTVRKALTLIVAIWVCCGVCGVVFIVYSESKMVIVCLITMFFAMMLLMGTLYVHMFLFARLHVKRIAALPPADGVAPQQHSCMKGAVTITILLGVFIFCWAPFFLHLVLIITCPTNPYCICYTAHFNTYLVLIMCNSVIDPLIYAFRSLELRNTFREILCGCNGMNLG
MC1, sequence (Q01726 whole entry): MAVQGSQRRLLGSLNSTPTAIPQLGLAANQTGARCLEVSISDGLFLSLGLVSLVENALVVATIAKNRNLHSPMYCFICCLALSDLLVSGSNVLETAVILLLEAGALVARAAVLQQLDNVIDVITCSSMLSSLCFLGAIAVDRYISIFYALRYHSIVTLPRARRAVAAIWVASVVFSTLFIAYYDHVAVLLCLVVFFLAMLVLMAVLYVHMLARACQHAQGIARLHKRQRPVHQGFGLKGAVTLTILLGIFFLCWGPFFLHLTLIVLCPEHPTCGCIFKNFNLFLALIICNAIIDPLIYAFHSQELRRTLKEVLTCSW

For the compound `N=C(NCCc1ccccc1)NN=Cc1c[nH]c2ccccc12` [Compound 12, N-(1H-indol-3-ylmethylideneamino)-N′-(2-phenylethyl)guanidine], the melting point (in general, the temperature, or range, at which the solid turns liquid) was 207 to 209 °C. In turn, `N=C(NCCc1ccccc1)NN=Cc1ccc([N+](=O)[O-])cc1` [Compound 20, N-(4-nitrobenzylideneamino)-N′-(2-phenylethyl)guanidine] registered a melting point of 241 to 243 °C.

`COc1ccc(C=NNC(=N)NCCc2ccccc2)cc1` [Compound 10, N-(4-methoxybenzylideneamino)-N′-(2-phenylethyl)guanidine] returned a melting point of 126 to 128 °C.

Compound `N=C(NN=Cc1cccn1-c1ccc(Cl)cc1)NN=Cc1cccn1-c1ccc(Cl)cc1` [Compound 34, N,N′-Di-(1-(4-Chlorophenyl)-1H-pyrrol-2-ylmethyleneamino)guanidine] yielded a melting point of 221 to 223 °C. Same read-out and setting: with `N=C(NCc1ccccc1)NN=Cc1ccc([N+](=O)[O-])cc1` [Compound 24, N-(4-Nitrobenzylideneamino)-N′-benzylguanidine] the figure was 239 to 241 °C. The same measure, in the same setting: with `N=C(NN=Cc1ccccc1Br)Nc1ccccc1` [Compound 28, N-(2-Bromobenzylideneamino)-N′-phenylguanidine] the figure was 149 to 152 °C; with `N=C(NN=Cc1ccc([N+](=O)[O-])cc1[N+](=O)[O-])Nc1ccccc1`, 180 to 190 °C. In turn, `N=C(NCCc1ccccc1)NN=Cc1ccc2ccccc2c1` [Compound 21, N-(naphthalen-2-yl-methylideneamino)-N′-(2-phenylethyl)guanidine] displayed a melting point of 244 to 246 °C. `N=C(NCc1ccccc1)NN=Cc1cccn1-c1ccc(Cl)cc1` [Compound 29, N-[1-(4-Chlorophenyl) 1H-pyrrol-2-ylmethyleneamino]-N′-benzylguanidine]: the melting point was in the range of 190 to 192 °C. Moreover, the “cAMP agonist/plateau stim. α-MSH (%) MC3” value at MC3 [1] was found to be 3%. Moreover, the inhibitory constant (Ki) – broadly, the dissociation constant of the complex between target and ligand, obtained from inhibition or displacement – at MC5-receptors turned out to be 1.32 µM. For the same compound, the “cAMP agonist/plateau stim. α-MSH (%) MC1” value at MC1 was 10%. Further, the Ki at MC4 [2] was 0.61 µM. Besides, at MC4 [3], the “cAMP agonist/plateau stim. α-MSH (%) MC4” value turned out to be 111%.

With `N=C(NCc1ccccc1)NN=Cc1ccc(O)cc1` [Compound 18, N-(4-hydroxybenzylideneamino)-N′-benzylguanidine], the melting point is 192 to 194 °C. The compound `COc1ccc(C=NNC(=N)NCc2ccccc2)c(Cl)c1OC` [Compound 1, N-(2-chloro-3,4-dimethoxybenzylideneamino)-N′-benzylguanidine] registered a melting point of 215 to 217 °C. `N=C(NN=Cc1c[nH]c2ccccc12)NN=Cc1c[nH]c2ccccc12` [Compound 14, N,N′-bis[1H-indol-3-yl-methylideneamino]guanidine]: the melting point was 296 to 298 °C. On the same count and under the same terms, with `CNC(=N)NN=Cc1ccc(OC)c(OC)c1Cl` [Compound 37, N-(2-Chloro-3,4-dimethoxybenzylideneamino)-N′-methylguanidine] the figure was 207 to 210 °C. In turn, `COc1ccc(C=NNC(=Nc2ccccc2)NO)c(Cl)c1OC` [Compound 2, N-(2-chloro-3,4-dimethoxybenzylideneamino)-N′-hydroxy-N″-phenylguanidine] had a melting point of 167 to 169 °C. `N=C(NCCc1ccccc1)NN=CC=Cc1ccccc1` [Compound 33] displayed a melting point of 175 to 177 °C. On MC3 [1], the “cAMP agonist/plateau stim. α-MSH (%) MC3” value is reported as 4%. In addition, the Ki on MC5-receptors was determined as 8.23 µM. In addition, the “cAMP agonist/plateau stim. α-MSH (%) MC1” value at MC1 is listed as 8%. Moreover, the affinity at MC3 [4] corresponds to a Ki of 5.36 µM. This compound came in with an inhibitory constant (Ki) at MC4 [2] of 3.59 µM. Also, the “cAMP agonist/plateau stim. α-MSH (%) MC4” value at MC4 [3] is reported as 161%. `N=C(N)N(Cc1cccc2ccccc12)N=Cc1c[nH]c2ccccc12` [Compound 13, N-(1H-indol-3-yl-methylideneamino)-N-(naphthalen-1-ylmethyl)guanidine] had a melting point of 213 to 215 °C. Compound `COc1ccc(C=NNC(=N)Nc2ccccc2)c(Cl)c1OC` [Compound 16, N-(2-chloro-3,4-dimethoxybenzylideneamino)-N′-phenylguanidine] had a melting point of 179 to 181 °C. The compound `N=C(NN=Cc1cc([N+](=O)[O-])ccc1F)Nc1ccccc1` [Compound 17, N-(2-fluoro-5-nitrobenzylideneamino)-N′-phenylguanidine] displayed a melting point of 191 to 193 °C. On the same count and under the same terms, the value for `COc1ccc(C=NNC(=N)NN=Cc2ccc(OC)c(OC)c2Cl)c(Cl)c1OC` [Compound 32, N,N′-Di-(2-Chloro-3,4-Dimethoxybenzylideneamino)guanidine] was 228 to 230 °C; that for `CNC(=N)NN=Cc1cc([N+](=O)[O-])ccc1F` [Compound 35, N-(2-Fluoro-5-nitrobenzylideneamino)-N′-methylguanidine] was 217 to 219 °C; that for `N=C(NN=Cc1cccc2ccccc12)NN=Cc1cccc2ccccc12` [Compound 30, N,N′-Di-(naphthalen-1-ylmethyleneamino)guanidine] was 253 to 255 °C. `N=C(NCc1cccc2ccccc12)NN=Cc1ccncc1` [Compound 11, N-(pyrid-4-yl-methylideneamino)-N′-(naphthalen-1-yl-methyl)guanidine] displayed a melting point of 260 to 262 °C.

For the compound `N=C(NCCc1ccccc1)NN=Cc1ccccc1Br` [Compound 27, N-(2-Bromobenzylideneamino)-N′-phenethylguanidine], the melting point is 154 to 155 °C. Besides, on MC3 [1], the “cAMP agonist/plateau stim. α-MSH (%) MC3” value amounted to 9%. Besides, the Ki at MC5-receptors amounted to 5.8 µM. Moreover, the “cAMP agonist/plateau stim. α-MSH (%) MC1” value on MC1 is 12%. The compound also yielded an inhibition constant (Ki) at MC3 [4] of 7.96 µM. At MC4 [2], this compound showed an inhibition constant Ki of 1.35 µM. The “cAMP agonist/plateau stim. α-MSH (%) MC4” value at MC4 [3] was 97%. In the case of `N=C(NN=Cc1ccc2ccccc2c1)Nc1ccc2ccccc2c1` [Compound 23, N-(naphthalen-2-yl-methylideneamino)-N′-naphthalen-2-ylguanidine], the melting point lay within 218 to 220 °C.
